Experimental data from publication PMC7695167, “Targeting the Interaction between the SH3 Domain of Grb2 and Gab2” (Cells, 2020).

Molecular target: T1, C-SH3 Grb2 (C-terminal SH3 domain of Grb2) (Homo sapiens, UniProt P62993)
T1 construct: isolated C-terminal SH3 domain, recombinant, expressed and purified as previously reported
Assay: tryptophan fluorescence, titration of preformed C-SH3:Gab2 peptide complex
Assay type: binding
Conditions: read-out: apparent inhibition constant

T1 sequence (P62993 159-217 limits assumed): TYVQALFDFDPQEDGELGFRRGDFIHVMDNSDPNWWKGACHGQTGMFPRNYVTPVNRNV

CCOc1cc(CNCCc2ccc(OC)cc2)ccc1OCc1cccc(Cl)c1 [AN-465-J137-985, N-(4-((3-Chlorobenzyl)oxy)-3-ethoxybenzyl)-2-(4-methoxyphenyl)ethan-1-amine]
Ki: ~5 µM
